# Values quoted from earlier work, collected in paper PMC6982354, “Promising New Inhibitors of Tyrosyl-DNA Phosphodiesterase I (Tdp 1) Combining 4-Arylcoumarin and Monoterpenoid Moieties as Components of Complex Antitumor Therapy” (International Journal of Molecular Sciences, 2019).
# Tests used:
# Tdp1 = molecular target: T1, Tdp1 (Homo sapiens, UniProt Q9NUW8); design: method as in PMID 27658793; details: Tdp1 inhibition, Figure 1; cited from earlier work
# T1 construct: made in house
# human cancer cells = test system: human cancer cells; design: method as in PMID 27658793; details: compound in non-toxic doses; cited from earlier work
# T1 sequence (Q9NUW8 whole entry): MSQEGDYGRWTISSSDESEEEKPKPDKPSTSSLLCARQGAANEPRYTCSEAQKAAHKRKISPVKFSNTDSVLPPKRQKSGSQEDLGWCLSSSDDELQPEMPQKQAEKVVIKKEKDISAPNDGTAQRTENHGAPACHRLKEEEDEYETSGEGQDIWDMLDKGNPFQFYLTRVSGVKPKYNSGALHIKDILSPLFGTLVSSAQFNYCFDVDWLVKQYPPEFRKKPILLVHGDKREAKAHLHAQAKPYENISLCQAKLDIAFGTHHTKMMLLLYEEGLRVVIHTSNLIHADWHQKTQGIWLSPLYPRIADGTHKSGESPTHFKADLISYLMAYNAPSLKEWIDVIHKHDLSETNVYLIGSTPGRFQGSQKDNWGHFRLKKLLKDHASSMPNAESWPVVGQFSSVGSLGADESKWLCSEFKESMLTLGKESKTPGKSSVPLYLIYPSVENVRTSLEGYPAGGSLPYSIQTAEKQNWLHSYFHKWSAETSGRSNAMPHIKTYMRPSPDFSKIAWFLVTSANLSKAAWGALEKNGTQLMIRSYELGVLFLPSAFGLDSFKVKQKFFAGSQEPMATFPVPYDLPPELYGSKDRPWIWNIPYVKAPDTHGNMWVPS
smiles,measurement,setting,value
COc1cccc(COc2ccc3c4c(c(=O)oc3c2)CCCC4)c1 [compound 1],IC50,Tdp1,5 µM
CC1(C)C2CC=C(COc3ccc4c5c(c(=O)oc4c3)CCC5)C1C2 (centres unmarked) [compound 2],effect on the cytotoxic activity of CPT,human cancer cells,significantly increased
